Data reported in patent US20230148214A1, “INDAZOLES AND AZAINDAZOLES AS LRRK2 INHIBITORS” (ESCAPE Bio, Inc., priority 2020, published 2023).

Tests used:
[1] = biological target: T1, LRRK2 G2019S (Homo sapiens, UniProt Q5S007, G2019S); experiment: LRRK2 Kinase Activity Assay (LanthaScreen TR-FRET), G2019S; format: biochemical; settings: recombinant G2019S-LRRK2, 25 μM ATP, 400 nM LRRKtide, 60 min; class symbols
T1 construct: purchased Life Technologies PV4881
Experimental: (§1) LRRK2 kinase activity was measured using a LanthaScreen™ Kinase Activity Assay from ThermoFisher Scientific. Recombinant wild type or G2019S-LRRK2 protein (Life Technologies, PR8604B or PV4881, respectively), was incubated with a fluorescein-labeled peptide substrate called LRRKtide that is based upon ezrin/radixin/moesin (ERM) (Life Technologies, PV4901) in the presence of ATP and serially diluted compound. […] Compound-dependent inhibition of the TR-FRET signal was used to generate a concentration-response curve for IC50 determination.
(§2) After 60 min incubation at room temperature, the reaction was stopped by addition of 10 μL of 2×stop solution containing a final concentration of 2 nM anti-pERM antibody and 10 mM EDTA.

[2] = biological target: T2, LRRK2 WT (Homo sapiens, UniProt Q5S007); experiment: LRRK2 Kinase Activity Assay (LanthaScreen TR-FRET), wild type; format: biochemical; settings: recombinant wild type LRRK2, 25 μM ATP, 400 nM LRRKtide, 60 min; class symbols
T2 construct: purchased Life Technologies PR8604B
T2 sequence (Q5S007 whole entry): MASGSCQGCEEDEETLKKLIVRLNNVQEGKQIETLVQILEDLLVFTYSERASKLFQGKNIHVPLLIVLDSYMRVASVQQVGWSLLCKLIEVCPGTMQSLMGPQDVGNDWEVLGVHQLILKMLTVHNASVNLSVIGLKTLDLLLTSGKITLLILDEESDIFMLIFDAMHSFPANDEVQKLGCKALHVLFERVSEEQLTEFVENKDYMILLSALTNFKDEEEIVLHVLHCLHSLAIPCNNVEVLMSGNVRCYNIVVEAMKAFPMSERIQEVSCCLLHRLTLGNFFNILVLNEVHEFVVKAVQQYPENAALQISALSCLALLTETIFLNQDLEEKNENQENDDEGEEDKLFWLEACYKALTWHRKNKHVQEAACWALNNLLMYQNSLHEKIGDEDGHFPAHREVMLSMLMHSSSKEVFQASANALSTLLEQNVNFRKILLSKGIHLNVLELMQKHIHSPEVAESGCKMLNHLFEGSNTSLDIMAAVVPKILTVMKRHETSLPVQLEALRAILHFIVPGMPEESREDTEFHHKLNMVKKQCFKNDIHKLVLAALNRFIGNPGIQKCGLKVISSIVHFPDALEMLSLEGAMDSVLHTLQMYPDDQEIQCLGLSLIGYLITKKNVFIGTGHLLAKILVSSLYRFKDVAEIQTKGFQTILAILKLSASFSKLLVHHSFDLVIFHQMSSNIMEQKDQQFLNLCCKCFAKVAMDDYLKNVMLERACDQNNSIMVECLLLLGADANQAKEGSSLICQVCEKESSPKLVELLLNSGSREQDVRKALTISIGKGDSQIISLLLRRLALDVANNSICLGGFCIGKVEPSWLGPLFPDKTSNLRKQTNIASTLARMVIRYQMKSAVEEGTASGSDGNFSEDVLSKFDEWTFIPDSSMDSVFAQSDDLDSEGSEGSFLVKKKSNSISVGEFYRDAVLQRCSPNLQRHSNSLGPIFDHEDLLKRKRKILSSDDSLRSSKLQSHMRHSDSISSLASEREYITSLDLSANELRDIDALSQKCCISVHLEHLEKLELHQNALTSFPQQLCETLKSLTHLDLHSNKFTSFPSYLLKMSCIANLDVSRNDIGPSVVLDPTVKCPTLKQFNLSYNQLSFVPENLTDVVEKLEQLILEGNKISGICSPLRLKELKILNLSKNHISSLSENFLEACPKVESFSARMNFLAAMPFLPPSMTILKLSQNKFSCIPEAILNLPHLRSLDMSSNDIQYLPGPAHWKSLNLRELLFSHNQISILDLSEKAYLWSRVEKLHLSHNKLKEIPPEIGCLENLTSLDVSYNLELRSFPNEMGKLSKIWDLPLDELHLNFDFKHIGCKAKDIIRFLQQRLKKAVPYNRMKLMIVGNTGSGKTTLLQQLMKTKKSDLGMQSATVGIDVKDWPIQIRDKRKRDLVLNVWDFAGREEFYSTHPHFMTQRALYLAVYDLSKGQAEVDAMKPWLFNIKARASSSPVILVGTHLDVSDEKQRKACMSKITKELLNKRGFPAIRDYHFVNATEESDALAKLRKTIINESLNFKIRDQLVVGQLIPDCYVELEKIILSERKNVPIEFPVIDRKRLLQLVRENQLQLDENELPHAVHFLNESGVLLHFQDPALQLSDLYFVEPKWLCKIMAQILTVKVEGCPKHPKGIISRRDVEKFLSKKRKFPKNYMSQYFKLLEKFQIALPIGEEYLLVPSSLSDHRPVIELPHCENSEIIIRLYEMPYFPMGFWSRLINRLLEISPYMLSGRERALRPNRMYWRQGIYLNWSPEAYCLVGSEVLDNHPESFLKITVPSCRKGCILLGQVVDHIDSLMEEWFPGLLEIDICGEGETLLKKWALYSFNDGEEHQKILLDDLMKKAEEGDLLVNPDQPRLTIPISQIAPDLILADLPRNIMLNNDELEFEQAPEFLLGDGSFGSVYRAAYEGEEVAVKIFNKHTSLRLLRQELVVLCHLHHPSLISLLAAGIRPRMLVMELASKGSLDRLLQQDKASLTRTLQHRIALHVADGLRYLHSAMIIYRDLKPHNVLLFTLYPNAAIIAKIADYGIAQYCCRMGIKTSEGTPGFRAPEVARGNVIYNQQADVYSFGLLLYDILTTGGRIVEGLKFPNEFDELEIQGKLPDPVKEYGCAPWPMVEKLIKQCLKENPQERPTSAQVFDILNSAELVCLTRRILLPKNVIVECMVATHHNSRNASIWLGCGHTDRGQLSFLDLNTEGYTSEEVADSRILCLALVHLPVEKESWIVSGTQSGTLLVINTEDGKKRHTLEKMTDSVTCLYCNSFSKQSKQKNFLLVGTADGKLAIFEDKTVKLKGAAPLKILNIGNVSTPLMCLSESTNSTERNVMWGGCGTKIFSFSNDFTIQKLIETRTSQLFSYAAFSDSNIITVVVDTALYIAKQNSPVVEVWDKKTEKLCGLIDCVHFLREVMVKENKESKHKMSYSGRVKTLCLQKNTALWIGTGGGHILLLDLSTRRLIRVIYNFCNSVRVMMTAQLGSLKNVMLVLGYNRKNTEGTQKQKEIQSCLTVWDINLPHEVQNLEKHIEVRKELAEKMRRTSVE
Experimental: as §1, §2

T1 sequence (Q5S007 whole entry G2019S): as the sequence (Q5S007 whole entry) above, with G2019S counted along it

IC50 [1] [nM]	IC50 [2] [nM]	SMILES
< 100	100 to 1000	C[C@H]1CCc2cc(C#N)ccc2[C@H]1Oc1ccc2[nH]nc(-c3cnco3)c2c1 (single isomer, unassigned) [175, enantiomer 1, cis-6-Methyl-5-[[3-(1,3-oxazol-5-yl)-1H-indazol-5-yl]oxy]-5,6,7,8-tetrahydronaphthalene-2-carbonitrile]
< 100	100 to 1000	C[C@H]1CCc2cc(C#N)ccc2[C@H]1Oc1ccc2[nH]nc(-c3cnco3)c2c1 (single isomer, unassigned) [175, enantiomer 2, cis-6-Methyl-5-[[3-(1,3-oxazol-5-yl)-1H-indazol-5-yl]oxy]-5,6,7,8-tetrahydronaphthalene-2-carbonitrile]
< 100	100 to 1000	C[C@@H]1CCc2cc(C#N)ccc2[C@H]1Oc1ccc2[nH]nc(-c3cnco3)c2c1 (single isomer, unassigned) [176, enantiomer 1, trans-6-Methyl-5-[[3-(1,3-oxazol-5-yl)-1H-indazol-5-yl]oxy]-5,6,7,8-tetrahydronaphthalene-2-carbonitrile]
< 100	< 100	C[C@@H]1CCc2cc(C#N)ccc2[C@H]1Oc1ccc2[nH]nc(-c3cnco3)c2c1 (single isomer, unassigned) [176, enantiomer 2, trans-6-Methyl-5-[[3-(1,3-oxazol-5-yl)-1H-indazol-5-yl]oxy]-5,6,7,8-tetrahydronaphthalene-2-carbonitrile]
< 100	< 100	N#Cc1cc2c(nc1Cl)[C@@H](Oc1ccc3[nH]nc(-c4cnco4)c3c1)CCC2 (single isomer, unassigned) [177, enantiomer 1, 2-Chloro-8-((3-(oxazol-5-yl)-1H-indazol-5-yl)oxy)-5,6,7,8-tetrahydroquinoline-3-carbonitrile]
< 100	< 100	COc1nc2c(cc1C#N)CCC[C@@H]2Oc1ccc2[nH]nc(-c3cnco3)c2c1 (single isomer, unassigned) [179, enantiomer 1, 2-Methoxy-8-[[3-(1,3-oxazol-5-yl)-1H-indazol-5-yl]oxy]-5,6,7,8-tetrahydroquinoline-3-carbonitrile]
100 to 1000	100 to 1000	COc1nc2c(cc1C#N)CCC[C@@H]2Oc1ccc2[nH]nc(-c3cnco3)c2c1 (single isomer, unassigned) [179, enantiomer 2, 2-Methoxy-8-[[3-(1,3-oxazol-5-yl)-1H-indazol-5-yl]oxy]-5,6,7,8-tetrahydroquinoline-3-carbonitrile]
< 100	< 100	N#Cc1cc2c(cc1F)[C@@H](Oc1ccc3[nH]nc(-c4cnco4)c3c1)CCC2 (single isomer, unassigned) [180, enantiomer 1, 3-Fluoro-5-[[3-(1,3-oxazol-5-yl)-1H-indazol-5-yl]oxy]-5,6,7,8-tetrahydronaphthalene-2-carbonitrile]
< 100	< 100	N#Cc1cnc2c(n1)CC[C@@H]2Oc1ccc2[nH]nc(-c3cnco3)c2c1 (single isomer, unassigned) [182, enantiomer 1, 5-((3-(Oxazol-5-yl)-1H-indazol-5-yl)oxy)-6,7-dihydro-5H-cyclopenta[b]pyrazine-2-carbonitrile]
100 to 1000		N#Cc1ccc2c(c1)CC[C@@H]2Oc1ccc2[nH]nc(C3CC3)c2c1 (single isomer, unassigned) [Example 124, enantiomer 2, 1-((3-Cyclopropyl-1H-indazol-5-yl)oxy)-2,3-dihydro-1H-indene-5-carbonitrile]
	< 100	Cc1ncc(-c2n[nH]c3ccc(O[C@H]4CCc5cc(C#N)c(F)cc54)cc23)o1 (single isomer, unassigned) [Example 160, enantiomer 2, 6-Fluoro-1-((3-(2-methyloxazol-5-yl)-1H-indazol-5-yl)oxy)-2,3-dihydro-1H-indene-5-carbonitrile]
	< 100	N#Cc1cnc2c(n1)CCC[C@@H]2Oc1ccc2[nH]nc(-c3cnco3)c2c1 (single isomer, unassigned) [Example 163, enantiomer 2, 5-[[3-(1,3-Oxazol-5-yl)-1H-indazol-5-yl]oxy]-5,6,7,8-tetrahydroquinoxaline-2-carbonitrile]
	< 100	Cc1c(C#N)c(Cl)nc2c1CC[C@@H]2Oc1ccc2[nH]nc(-c3cnco3)c2c1 (single isomer, unassigned) [Example 166, enantiomer 2, 2-Chloro-4-methyl-7-[[3-(1,3-oxazol-5-yl)-1H-indazol-5-yl]oxy]-6,7-dihydro-5H-cyclopenta[b]pyridine-3-carbonitrile]
	< 100	N#Cc1c(F)cc2c(c1F)CC[C@@H]2Oc1ccc2[nH]nc(-c3cnco3)c2c1 (single isomer, unassigned) [Example 167, enantiomer 2, 4,6-Difluoro-1-[[3-(1,3-oxazol-5-yl)-1H-indazol-5-yl]oxy]-2,3-dihydro-1H-indene-5-carbonitrile]
	< 100	N#Cc1cc2c(nc1Cl)[C@@H](Oc1ccc3[nH]nc(-c4cnco4)c3c1)CC2 (single isomer, unassigned) [Example 171, enantiomer 2, 2-Chloro-7-[[3-(1,3-oxazol-5-yl)-1H-indazol-5-yl]oxy]-6,7-dihydro-5H-cyclopenta[b]pyridine-3-carbonitrile]

The remaining lines, values behind:

SMILES	IC50 [1] [nM]	IC50 [2] [nM]
N#Cc1cc2c(nc1Cl)[C@@H](Oc1ccc3[nH]nc(-c4cnoc4)c3c1)CCC2 (single isomer, unassigned) [178, enantiomer 1, 2-Chloro-8-[[3-(1,2-oxazol-4-yl)-1H-indazol-5-yl]oxy]-5,6,7,8-tetrahydroquinoline-3-carbonitrile]	< 100	< 100
N#Cc1cc2c(nc1Cl)[C@@H](Oc1ccc3[nH]nc(C4CC4)c3c1)CCC2 (single isomer, unassigned) [181, enantiomer 1, 2-Chloro-8-[(3-cyclopropyl-1H-indazol-5-yl)oxy]-5,6,7,8-tetrahydroquinoline-3-carbonitrile]	< 100	< 100
N#Cc1cc2c(nc1Cl)[C@@H](Oc1ccc3[nH]nc(C4CC4)c3c1)CCC2 (single isomer, unassigned) [181, enantiomer 2, 2-Chloro-8-[(3-cyclopropyl-1H-indazol-5-yl)oxy]-5,6,7,8-tetrahydroquinoline-3-carbonitrile]	< 100	100 to 1000
Cc1c(C#N)c(Cl)nc2c1CCC[C@@H]2Nc1ccc2[nH]nc(C3CC3)c2c1 (single isomer, unassigned) [183, enantiomer 1, 2-Chloro-8-[(3-cyclopropyl-1H-indazol-5-yl)amino]-4-methyl-5,6,7,8-tetrahydroquinoline-3-carbonitrile]	100 to 1000	1000 to 10000
Cc1c(C#N)c(Cl)nc2c1CCC[C@@H]2Nc1ccc2[nH]nc(C3CC3)c2c1 (single isomer, unassigned) [183, enantiomer 2, 2-Chloro-8-[(3-cyclopropyl-1H-indazol-5-yl)amino]-4-methyl-5,6,7,8-tetrahydroquinoline-3-carbonitrile]	< 100	< 100
Cc1c(C#N)c(Cl)nc2c1CCC[C@@H]2Oc1ccc2[nH]nc(C3CC3)c2c1 (single isomer, unassigned) [184, enantiomer 1, 2-Chloro-8-[(3-cyclopropyl-1H-indazol-5-yl)oxy]-4-methyl-5,6,7,8-tetrahydroquinoline-3-carbonitrile]	< 100	< 100
Cc1c(C#N)c(Cl)nc2c1CCC[C@@H]2Oc1ccc2[nH]nc(C3CC3)c2c1 (single isomer, unassigned) [184, enantiomer 2, 2-Chloro-8-[(3-cyclopropyl-1H-indazol-5-yl)oxy]-4-methyl-5,6,7,8-tetrahydroquinoline-3-carbonitrile]	< 100	1000 to 10000
COc1n[nH]c2ccc(O[C@H]3CCc4cc(C#N)c(Cl)nc43)cc12 (single isomer, unassigned) [185, enantiomer 1, 2-Chloro-7-[(3-methoxy-1H-indazol-5-yl)oxy]-6,7-dihydro-5H-cyclopenta[b]pyridine-3-carbonitrile]	< 100	< 100
N#Cc1cnc2c(c1)CCC[C@@H]2Oc1ccc2[nH]nc(C3CC3)c2c1 (single isomer, unassigned) [Example 136, enantiomer 2, 8-((3-Cyclopropyl-1H-indazol-5-yl)oxy)-5,6,7,8-tetrahydroquinoline-3-carbonitrile]	100 to 1000	
N#Cc1ccc2c(c1)CCCC2Nc1ccc2[nH]nc(C(F)(F)F)c2c1 (single isomer, unassigned) [Example 153, enantiomer 2, 5-((3-(Trifluoromethyl)-1H-indazol-5-yl)amino)-5,6,7,8-tetrahydronaphthalene-2-carbonitrile]	1000 to 10000	
Cc1nc2c(c(C)c1C#N)CCC[C@@H]2Nc1ccc2[nH]nc(-c3cnco3)c2c1 (single isomer, unassigned) [Example 164, enantiomer 2, 2,4-Dimethyl-8-[[3-(1,3-oxazol-5-yl)-1H-indazol-5-yl]amino]-5,6,7,8-tetrahydroquinoline-3-carbonitrile]		< 100
COc1nc2c(c(C)c1C#N)CCC[C@@H]2Nc1ccc2[nH]nc(-c3cnco3)c2c1 (single isomer, unassigned) [Example 165, enantiomer 2, 2-Methoxy-4-methyl-8-[[3-(1,3-oxazol-5-yl)-1H-indazol-5-yl]amino]-5,6,7,8-tetrahydroquinoline-3-carbonitrile]		< 100
